According to US7071227B2, “Antiviral compositions and methods of use” (The Johns Hopkins University, priority 2000, dated 2006):
Values after ≈ are worked out from the molar mass of the structure shown. Values joined by “and” are separate entries in the source; they are usually repeats but may differ in a detail not shown here. Identical values can stand only once. Like-named read-outs stand apart in the source and are kept apart here.

Key:
HIV-1 integrase = HIV-1 integrase (Human immunodeficiency virus type 1 group M subtype B, UniProt P12497); test: HIV-1 integrase 3'-end processing assay; assay type: biochemical
Procedure: The HIV-1 integrase assay utilized in testing described below used a DNA substrate consisting of a DNA sequence derived from the U5 end of HIV-1 LTR. It was prepared by annealing oligonucleotide U5V1 (5′-[…]) with its complementary strand U5V2 (3′-[…]). The U5V1 strand was labeled at the 5′-end with [γ-^32P] ATP using T4 polynucleotide kinase as described previously (Kamata et al., 1994). The standard reaction mixture included reaction buffer (40 mM HEPES, pH 7.5, 20 mM MnCL2, 60 mM NaCl, 20 mM DTT and 0.1% Nonidet-P40) and HIV-1 integrase (NIH AIDS Research and Reference Reagent Program). To assay for 3′-end processing, the labeled substrate was incubated with the reaction mixture for 60 minutes at 37° C. An equal volume of stop solution (95% formamide, 30 mM EDTA, 0.1% xylene cyanol, 0.1% bromophenol blue) was added to each reaction and the samples were heated to 95°′ C. for 5 minutes to denature the DNA. The samples were then fractionated by electrophorsis on a 15% denaturing polyacrylamide gel. The 3′-end processing activity was monitored by the appearance of a radioactive oligonucleotides product (33 nt), shortened by two nucleotides from the original substrate (35 nt). The products were visualized by autoradiography and quantitation was carried out by phosphorimaging.

[1] = test system: HIV-1IIIBA17 and HIV-1L10R/M461/L63P/V82T/184V; test: HIV replication in infected H9 cells, HIV/p24 monoclonal antibody assay; assay type: cell-based; details: Human immunodeficiency virus 1, H9, read-out: IC50 against HIV replication
Procedure: The following cells and virus strains were obtained from the AIDS Research and Reference Regent Program, Division of AIDS, National Institute of Allergy and Infectious Diseases: H9 cells, virus strains of HIV-1IIIBA17, a variant resistant to RT nonnucleotide inhibitors and HIV-1L10R/M461/L63P/V82T/184V, a protease inhibitor resistant virus, as well as viral strains HTLV-IIImn, HIV-1RTMF and HTLV-IIIB. Virus-infected H9 cells were cultured in the presence of different concentrations of M522 and M532 and viral replication was assayed using the HIV/p24 monoclonal antibody assay.
The inhibitory effect of M522 and M532 against HIV replication was further examined using HIV-1IIIBA17, a variant resistant to RT nonnucleotide inhibitors and HIV-1L10R/M461/L63P/V82T/184V, a protease inhibitor resistant virus, as testing viruses in the presence of a variety of drug concentrations in infected H9 cells.
FIG. 7A graphically illustrates the effect of M522 and M532 on HIV-1 replication. FIG. 7A illustrates the dose-dependent inhibition of HIV-1 replication in H9 cells infected with HIV-1IIIBA17 and HIV-1L10R/M461/L63P/V82T/184V viruses in the presence of different drug concentrations of M522 and M532.

HTLV-IIIB = test: HIV-1 replication in H9 cells, p24 antigen assay; assay type: cell-based; details: for IC50: Human immunodeficiency virus 1, 192 h, H9 cells, 8 days; for inhibition at 1.25 µg/mL: Human immunodeficiency virus 1, H9, 1.25 μg/ml; for inhibition at 2.5 µg/mL: Human immunodeficiency virus 1, H9, 2.5 μg/ml; for inhibition at 5 µg/mL: Human immunodeficiency virus 1, H9, 5.0 μg/ml; for inhibition at 10 µg/mL: Human immunodeficiency virus 1, H9, 10.0 μg/ml; for inhibition at 20 µg/mL: Human immunodeficiency virus 1, H9, 20.0 μg/ml; for inhibition at 40 µg/mL: Human immunodeficiency virus 1, H9, 40.0 μg/ml; for inhibition at 80 µg/mL: Human immunodeficiency virus 1, H9, 80.0 μg/ml
Procedure: (§1) Inhibitory activity of M522 and M532 against the replication of four different HIV-1 strains was tested in this example. Two of the strains were drug-resistant virus isolates (HIV-1RTMF resistant against AZT and HIV-1IIIBA17 variant resistant against inhibition by RT nonnucleotide inhibitors) and the other two were primary isolates (HTLV-IIIMN and HTLV-IIIB).
(§2) On the day before infection, H9 cells were subcultured at 1–2×10^5 cells/ml and on the day of the infection, cells were pelleted by centrifugation at room temperature for 10 minutes. The pellet was then resuspended with 1 ml of each strain according to the virus titer. The mixtures were incubated at 37 ° C. in CO2 incubator for 2 hours. The cells were then washed two times with PBS and then two times with the culture medium (RPMI 1640). The cells were resuspended with fresh medium and plated in 96 well plates. Every 3–4 days after infection, cells were sub-cultured and supernatant was saved to assay for virus production.
(§3) The activity of M522 against the four strains were tested at various drug concentrations of 80, 40, 20, 10, 5, 2.5, 1.25, and 0 μg/ml. After 8 days, the infection of the cells was detected by using HIV-1 p24 antigen assay, which is an enzyme immunoassay (EIA, or enzyme-linked immunosorbent assay) developed for detection and quantitation of the HIV-1 p24 core protein.

HIV-1IIIBA17 variant = test: HIV-1 replication in H9 cells, p24 antigen assay; assay type: cell-based; details: for inhibition at 1.25 µg/mL / inhibition at 2.5 µg/mL / inhibition at 5 µg/mL / inhibition at 10 µg/mL / inhibition at 20 µg/mL / inhibition at 40 µg/mL / inhibition at 80 µg/mL: Human immunodeficiency virus 1, H9; for IC50: Human immunodeficiency virus 1, H9, 192 h, read-out: IC50, HIV-1 replication
Procedure: as §1, §2, §3

HTLV-IIIMN = test: HIV-1 replication in H9 cells, p24 antigen assay; assay type: cell-based; details: for IC50: Human immunodeficiency virus 1, 192 h, H9 cells, 8 days; for inhibition at 1.25 µg/mL: Human immunodeficiency virus 1, H9, 1.25 μg/ml; for inhibition at 2.5 µg/mL: Human immunodeficiency virus 1, H9, 2.5 μg/ml; for inhibition at 5 µg/mL: Human immunodeficiency virus 1, H9, 5.0 μg/ml; for inhibition at 10 µg/mL: Human immunodeficiency virus 1, H9, 10.0 μg/ml; for inhibition at 20 µg/mL: Human immunodeficiency virus 1, H9, 20.0 μg/ml; for inhibition at 40 µg/mL: Human immunodeficiency virus 1, H9, 40.0 μg/ml; for inhibition at 80 µg/mL: Human immunodeficiency virus 1, H9, 80.0 μg/ml
Procedure: as §1, §2, §3

HIV-1RTMF = test: HIV-1 replication in H9 cells, p24 antigen assay; assay type: cell-based; details: for inhibition at 1.25 µg/mL / inhibition at 2.5 µg/mL / inhibition at 5 µg/mL / inhibition at 10 µg/mL / inhibition at 20 µg/mL / inhibition at 40 µg/mL / inhibition at 80 µg/mL: Human immunodeficiency virus 1, H9; for IC50: Human immunodeficiency virus 1, H9, 192 h, read-out: IC50, HIV-1 replication
Procedure: as §1, §2, §3

H9 cells = test: MTT cytotoxicity assay; assay type: cell-based, human; details: 4 days
Procedure: The cytotoxicity of M522 and M532 drugs against H9 cells was analyzed using MTT [3-(4,5-dimethylthiazol-2-yl)-2,5-diphenyltetrazolium bromide] assay (Sigma Chemical Co.) (Uckun et al., 1998). Briefly, exponentially growing H9 cells were seeded onto 96-well plates at a density of 3×10^4 cells/well and incubated for 24 h at 37° C. prior to drug exposure. On the day of treatment, a series Of M522 and M532 concentrations (1.25, 2.5, 5, 10, 20, 40, 80, and 160 μg/ ml) were used to test their cytotoxicity in H9 cells. Quadruplicate wells were used for each treatment. The cells were incubated with M522 and M532 for 4 days at 37° C. in a humidified 5% CO2 atmosphere. To each well, 50 μl of MTT (1 mg/ml final concentration) was added and the plates were incubated at 37° C. for 4 h to allow MTT to form formazan crystals by reacting with metabolically active cells. The formazan crystals were solubilized with DMSO. The absorbance of each well was measured in a microtiter reader at optical density 540 nm. The reaction is specific, no significant amounts of formazan can be detected with dead cells.

| SMILES | IC50 [1] | IC50 (HTLV-IIIB) [µg/mL] | inhibition at 1.25 µg/mL (HTLV-IIIB) [%] | inhibition at 2.5 µg/mL (HTLV-IIIB) [%] | inhibition at 5 µg/mL (HTLV-IIIB) [%] | inhibition at 10 µg/mL (HTLV-IIIB) [%] | inhibition at 20 µg/mL (HTLV-IIIB) [%] | inhibition at 40 µg/mL (HTLV-IIIB) [%] | inhibition at 80 µg/mL (HTLV-IIIB) [%] | inhibition at 1.25 µg/mL (HIV-1IIIBA17 variant) [%] | inhibition at 2.5 µg/mL (HIV-1IIIBA17 variant) [%] | inhibition at 5 µg/mL (HIV-1IIIBA17 variant) [%] | inhibition at 10 µg/mL (HIV-1IIIBA17 variant) [%] | inhibition at 20 µg/mL (HIV-1IIIBA17 variant) [%] | inhibition at 40 µg/mL (HIV-1IIIBA17 variant) [%] | inhibition at 80 µg/mL (HIV-1IIIBA17 variant) [%] | IC50 (HIV-1IIIBA17 variant) [µg/mL] | IC50 (HTLV-IIIMN) [µg/mL] | inhibition at 1.25 µg/mL (HTLV-IIIMN) [%] | inhibition at 2.5 µg/mL (HTLV-IIIMN) [%] | further results |
| --- | --- | --- | --- | --- | --- | --- | --- | --- | --- | --- | --- | --- | --- | --- | --- | --- | --- | --- | --- | --- | --- |
| O=C(/C=C/c1ccc(O)c2c1[C@H](C(=O)O)[C@@H](c1ccc(O)c(O)c1)O2)O[C@H](Cc1ccc(O)c(O)c1)C(=O)O [M522, 4-{2-[1-carboxy-2-(3,4-dihydroxy-phenyl)-ethoxycarbonyl]-vinyl}-2-(3,4-dihydroxy-phenyl)-7-hydroxy-2,3-dihydro-benzofuran-3-carboxylic acid] | 1.5 µg/mL and 2.7 µM | 11 (≈ 20.4 µM) | 31.4 | 42.1 | 45.9 | 47.3 | 62 | 82.4 | 94.5 | 51.2 | 53.6 | 76.8 | 85 | 90.2 | 100 | 100 | 1.5 (≈ 2.79 µM) | 9 (≈ 16.7 µM) | 7.7 | 21.8 | IC50 (HIV-1 integrase; read-out: IC50, inhibition of HIV-1 integrase 3' processing activity (converted)): 836 nM and 830 nM; inhibition at 5 µg/mL (HTLV-IIIMN): 30%; inhibition at 10 µg/mL (HTLV-IIIMN): 51.9%; inhibition at 20 µg/mL (HTLV-IIIMN): 72.1%; inhibition at 40 µg/mL (HTLV-IIIMN): 77.3%; inhibition at 80 µg/mL (HTLV-IIIMN): 88.4%; inhibition at 1.25 µg/mL (HIV-1RTMF): 26.2%; inhibition at 2.5 µg/mL (HIV-1RTMF): 47.7%; inhibition at 5 µg/mL (HIV-1RTMF): 78.6%; inhibition at 10 µg/mL (HIV-1RTMF): 83.4%; inhibition at 20 µg/mL (HIV-1RTMF): 95.5%; inhibition at 40 µg/mL (HIV-1RTMF): 98.2%; inhibition at 80 µg/mL (HIV-1RTMF): 100%; IC50 (HIV-1RTMF): 2.7 µg/mL (≈ 5.01 µM); CC100; cells remained viable at highest concentration tested (H9 cells): > 297 µM |
| O=C(/C=C/c1ccc(O)c2c1[C@H](C(=O)O[C@H](Cc1ccc(O)c(O)c1)C(=O)O)[C@@H](c1ccc(O)c(O)c1)O2)O[C@H](Cc1ccc(O)c(O)c1)C(=O)O [M532, 4-{2-[1-carboxy-2-(3,4-dihydroxy-phenyl)-ethoxycarbonyl]-vinyl}-2-(3,4-dihydroxy-phenyl)-7-hydroxy-2,3-dihydro-benzofuran-3-carboxylic acid 1-carboxy-2-(3,4-dihydroxy-phenyl)-ethyl ester] | 1 µg/mL and 1.39 µM | 11 (≈ 15.3 µM) | 4.7 | 16.1 | 20.1 | 34.5 | 90.8 | 96.2 | 96.8 | 2 | 21.8 | 50 | 53.6 | 97.5 | 97.7 | 98.4 | 5 (≈ 6.96 µM) | 5.5 (≈ 7.65 µM) | 8.3 | 45.7 | IC50 (HIV-1 integrase; IC50, inhibition of HIV-1 integrase 3' processing activity): 487 nM and 450 nM; inhibition at 5 µg/mL (HTLV-IIIMN): 47%; inhibition at 10 µg/mL (HTLV-IIIMN): 57.2%; inhibition at 20 µg/mL (HTLV-IIIMN): 87%; inhibition at 40 µg/mL (HTLV-IIIMN): 90%; inhibition at 80 µg/mL (HTLV-IIIMN): 94.1%; inhibition at 1.25 µg/mL (HIV-1RTMF): 20.8%; inhibition at 2.5 µg/mL (HIV-1RTMF): 38.7%; inhibition at 5 µg/mL (HIV-1RTMF): 44.2%; inhibition at 10 µg/mL (HIV-1RTMF): 73.6%; inhibition at 20 µg/mL (HIV-1RTMF): 90.4%; inhibition at 40 µg/mL (HIV-1RTMF): 95%; inhibition at 80 µg/mL (HIV-1RTMF): 98.3%; IC50 (HIV-1RTMF): 5.6 µg/mL (≈ 7.79 µM); CC100; cells remained viable at highest concentration tested (H9 cells): > 223 µM |
